This is an account of results in patent US20080021069A1, “Receptor Function Regulating Agent” (TAKEDA PHARMACEUTICAL COMPANY LIMITED, priority 2004, published 2008).

The structures appear in SMILES notation.

`Cl.FC(F)(F)COc1ccc(-n2c(SCc3ccc(Cl)cc3)nc3ccc(Cl)cc32)cc1` returned a melting point of 106 to 107 °C.
Then `Cl.Clc1ccc(CSc2nc3cc(Cl)ccc3n2-c2ccc(OCC3CC3)cc2)cc1`, with 118 to 126 °C.
Then `COc1ccc(-n2c(SCc3ccc(Cl)cc3)nc3ccc(Cl)cc32)cn1.Cl`, with 80 to 86 °C.
The value for `COc1ccc(-n2c(SCc3ccc(C(F)(F)F)nc3)nc3ccc(Cl)cc32)cn1.Cl` was 69 to 76 °C; that for `CCOc1ccc(-n2c(SCc3ccc(C(C)C)cc3)nc3ccc(Cl)cc32)cc1.Cl` was 96 to 100 °C.
`Cl.FC(F)(F)Oc1ccc(-n2c(SCc3ccc(Cl)cc3)nc3cc(Cl)ccc32)cc1` came in with a melting point of 96 to 100 °C.
For `COc1ccc(-n2c(SCc3ccc(Cl)cc3)nc3ccc(Cl)cc32)cc1` [Example 1, 6-Chloro-2-[(4-chlorobenzyl)thio]-1-(4-methoxyphenyl)-1H-benzimidazole], the melting point lay within 116 to 117 °C.
The value for `COc1ccc(-n2c(SCc3ccccc3Cl)nc3ccc(Cl)cc32)cc1` [Example 3, 6-Chloro-2-[(2-chlorobenzyl)thio]-1-(4-methoxyphenyl)-1H-benzimidazole] was 94 to 95 °C; that for `COc1ccc(-n2c(SCc3cccc(OC)c3)nc3ccc(Cl)cc32)cc1` [Example 5, 6-Chloro-2-[(3-methoxybenzyl)thio]-1-(4-methoxyphenyl)-1H-benzimidazole] was 93 to 94 °C; that for `COc1ccc(CSc2nc3ccc(Cl)cc3n2-c2ccc(OC)cc2)cc1` [Example 6, 6-Chloro-2-[(4-methoxybenzyl)thio]-1-(4-methoxyphenyl)-1H-benzimidazole] was 119 to 120 °C.
Then `Oc1ccc(-n2c(SCc3ccc(Cl)cc3)nc3ccc(Cl)cc32)cc1` [Example 9, 4-{6-Chloro-2-[(4-chlorobenzyl)thio]-1H-benzimidazol-1-yl}phenol], with 210 to 212 °C; and `Clc1ccc(CSc2nc3ccc(Cl)cc3n2-c2ccc(OCC3CC3)cc2)cc1` [Example 11, 6-Chloro-2-[(4-chlorobenzyl)thio]-1-[4-(cyclopropylmethoxy)phenyl]-1H-benzimidazole], with 137 to 138 °C.
Then `CC(=O)OCCOc1ccc(-n2c(SCc3ccc(Cl)cc3)nc3ccc(Cl)cc32)cc1` [Example 15, 2-(4-{6-Chloro-2-[(4-chlorobenzyl)thio]-1H-benzimidazol-1-yl}phenoxy)ethyl acetate], with 126 to 127 °C.
The compound `OCCOc1ccc(-n2c(SCc3ccc(Cl)cc3)nc3ccc(Cl)cc32)cc1` [Example 16, 2-(4-{6-Chloro-2-[(4-chlorobenzyl)thio]-1H-benzimidazol-1-yl}phenoxy)ethanol] returned a melting point of 113 to 114 °C.
The value for `COc1cccc(-n2c(SCc3ccc(Cl)cc3)nc3ccc(Cl)cc32)c1` [Example 17, 6-Chloro-2-[(4-chlorobenzyl)thio]-1-(3-methoxyphenyl)-1H-benzimidazole] was 100 to 101 °C.
The value for `COc1ccccc1-n1c(SCc2ccc(Cl)cc2)nc2ccc(Cl)cc21` [Example 18, 6-Chloro-2-[(4-chlorobenzyl)thio]-1-(2-methoxyphenyl)-1H-benzimidazole] was 124 to 125 °C; that for `CCOC(=O)c1ccc(-n2c(SCc3ccc(Cl)cc3)nc3ccc(Cl)cc32)cc1` [Example 19, Ethyl 4-{6-chloro-2-[(4-chlorobenzyl)thio]-1H-benzimidazol-1-yl}benzoate] was 100 to 101 °C.
Then `COc1ccc(-n2c(SCc3ccc(Cl)cc3)nc3ccc(OC)cc32)cc1` [Example 20, 2-[(4-Chlorobenzyl)thio]-6-methoxy-1-(4-methoxyphenyl)-1H-benzimidazole], with 80 to 81 °C; and `COc1ccc(-n2c(SCc3ccccc3)nc3ccc(Cl)cc32)cc1` [Example 21, 2-(Benzylthio)-6-chloro-1-(4-methoxyphenyl)-1H-benzimidazole], with 89 to 90 °C.
Take `CCCCOc1ccc(-n2c(SCc3ccc(Cl)cc3)nc3ccc(Cl)cc32)cc1` [Example 22, 1-(4-Butoxyphenyl)-6-chloro-2-[(4-chlorobenzyl)thio]-1H-benzimidazole]: the melting point lay in the range of 96 to 97 °C.
Then `CC(C)Oc1ccc(-n2c(SCc3ccc(Cl)cc3)nc3ccc(Cl)cc32)cc1` [Example 23, 6-Chloro-2-[(4-chlorobenzyl)thio]-1-(4-isopropoxyphenyl)-1H-benzimidazole], with 102 to 103 °C; and `COCCOc1ccc(-n2c(SCc3ccc(Cl)cc3)nc3ccc(Cl)cc32)cc1` [Example 24, 6-Chloro-2-[(4-chlorobenzyl)thio]-1-[4-(2-methoxyethoxy)phenyl]-1H-benzimidazole], with 88 to 90 °C.
Compound `CS(=O)(=O)Oc1ccc(-n2c(SCc3ccc(Cl)cc3)nc3ccc(Cl)cc32)cc1` [Example 25, 4-{6-Chloro-2-[(4-chlorobenzyl)thio]-1H-benzimidazol-1-yl}phenyl methanesulfonate] yielded a melting point of 128 to 129 °C.
`Clc1ccc(CSc2nc3ccc(Cl)cc3n2-c2ccc(Cl)cc2)cc1` [Example 26, 6-Chloro-2-[(4-chlorobenzyl)thio]-1-(4-chlorophenyl)-1H-benzimidazole]: the melting point lay within 156 to 157 °C.
In turn, `CN(C)C(=O)c1ccc(-n2c(SCc3ccc(Cl)cc3)nc3ccc(Cl)cc32)cc1` [Example 27, 4-{6-Chloro-2-[(4-chlorobenzyl)thio]-1H-benzimidazol-1-yl}-N,N-dimethylbenzamide] came in with a melting point of 139 to 140 °C.
Consider `CCOc1ccc(-n2c(SCc3ccc(Br)cc3)nc3ccc(Cl)cc32)cc1` [Example 30, 2-[(4-Bromobenzyl)thio]-6-chloro-1-(4-ethoxyphenyl)-1H-benzimidazole], for which the melting point is 136 to 137 °C.
The value for `CCOCOc1ccc(-n2c(SCc3ccc(Cl)cc3)nc3ccc(Cl)cc32)cc1` [Example 31, 6-Chloro-2-[(4-chlorobenzyl)thio]-1-[4-(ethoxymethoxy)phenyl]-1H-benzimidazole] was 130 to 131 °C; that for `CCOCOc1ccc(-n2c(SCc3ccc(Br)cc3)nc3ccc(Cl)cc32)cc1` [Example 32, 2-[(4-Bromobenzyl)thio]-6-chloro-1-[4-(ethoxymethoxy)phenyl]-1H-benzimidazole] was 145 to 146 °C.
The value for `CCOc1ccc(-n2c(SCc3ccc(-c4ccccc4)cc3)nc3ccc(Cl)cc32)cc1` [Example 34, 2-[(Biphenyl-4-ylmethyl)thio]-6-chloro-1-(4-ethoxyphenyl)-1H-benzimidazole] was 116 to 117 °C; that for `CCOc1ccc(-n2c(SCc3ccc(C#N)cc3)nc3ccc(Cl)cc32)cc1` [Example 35, 4-({[6-Chloro-1-(4-ethoxyphenyl)-1H-benzimidazol-2-yl]thio}methyl)benzonitrile] was 154 to 155 °C.
Then `CCOc1ccc(-n2c(SCc3ccc(C(=O)OC)cc3)nc3ccc(Cl)cc32)cc1` [Example 37, Methyl 4-({[6-chloro-1-(4-ethoxyphenyl)-1H-benzimidazol-2-yl]thio}methyl)benzoate], with 107 to 109 °C.
Take `CON(C)C(=O)c1ccc(-n2c(SCc3ccc(Cl)cc3)nc3ccc(Cl)cc32)cc1` [Example 39, 4-{6-Chloro-2-[(4-chlorobenzyl)thio]-1H-benzimidazol-1-yl}-N-methoxy-N-methylbenzamide]: the melting point lay in the range of 125 to 126 °C.
In turn, `CCC(=O)c1ccc(-n2c(SCc3ccc(Cl)cc3)nc3ccc(Cl)cc32)cc1` [Example 40, 1-(4-{6-Chloro-2-[(4-chlorobenzyl)thio]-1H-benzimidazol-1-yl}phenyl)propan-1-one] returned a melting point of 176 to 177 °C.
Then `CC(C)C(=O)c1ccc(-n2c(SCc3ccc(Cl)cc3)nc3ccc(Cl)cc32)cc1` [Example 41, 1-(4-{6-Chloro-2-[(4-chlorobenzyl)thio]-1H-benzimidazol-1-yl}phenyl)-2-methylpropan-1-one], with 162 to 163 °C; and `O=C(O)c1ccc(-n2c(SCc3ccc(Cl)cc3)nc3ccc(Cl)cc32)cc1` [Example 42, 4-{6-Chloro-2-[(4-chlorobenzyl)thio]-1H-benzimidazol-1-yl}benzoic acid], with 265 to 266 °C.
Consider `O=C(NCCO)c1ccc(-n2c(SCc3ccc(Cl)cc3)nc3ccc(Cl)cc32)cc1` [Example 43, 4-{6-Chloro-2-[(4-chlorobenzyl)thio]-1H-benzimidazol-1-yl}-N-(2-hydroxyethyl)benzamide], for which the melting point fell in the range of 185 to 186 °C.
As to `CCOc1ccc(-n2c(SC(C)c3ccc(Br)cc3)nc3ccc(Cl)cc32)cc1` (stereo not drawn) [Example 48, 2-{[1-(4-Bromophenyl)ethyl]thio}-6-chloro-1-(4-ethoxyphenyl)-1H-benzimidazole], the melting point is 95 to 98 °C.
Then `Clc1ccc2nc(SCc3ccccc3)n(-c3ccccc3)c2c1` [Example 49, 2-(Benzylthio)-6-chloro-1-phenyl-1H-benzimidazole], with 82 to 83 °C.
The compound `COCOc1ccc(-n2c(SCc3ccccn3)nc3ccc(Cl)cc32)cc1` [Example 55, 6-Chloro-1-[4-(methoxymethoxy)phenyl]-2-[(pyridin-2-ylmethyl)thio]-1H-benzimidazole] gave a melting point of 95 to 96 °C.
`COCOc1ccc(-n2c(SCc3cccnc3)nc3ccc(Cl)cc32)cc1` [Example 56, 6-Chloro-1-[4-(methoxymethoxy)phenyl]-2-[(pyridin-3-ylmethyl)thio]-1H-benzimidazole]: the melting point lay in the range of 101 to 102 °C.
Then `CCOC(=O)N1CCC(n2c(SCc3ccc(Cl)cc3)nc3ccc(Cl)cc32)CC1` [Example 58, Ethyl 4-{6-chloro-2-[(4-chlorobenzyl)thio]-1H-benzimidazol-1-yl}piperidine-1-carboxylate], with 118 to 119 °C.
The value for `CCOC(=O)N1CCC(n2c(SCc3ccc(Br)cc3)nc3ccc(Cl)cc32)CC1` [Example 59, Ethyl 4-{2-[(4-bromobenzyl)thio]-6-chloro-1H-benzimidazol-1-yl}piperidine-1-carboxylate] was 123 to 124 °C.

The term melting point denotes the temperature of the solid-liquid transition.
